# Laboratory results published in patent US4576947A, “Pharmaceutical compositions” (Hoechst Aktiengesellschaft, priority 1972, dated 1986).
# Tests used:
# [1] = background statement, in words; cited from earlier work
# [2] = test system: rate of blood circulation; settings: background statement, in words; cited from earlier work
# cerebral blood flow = assay: Cerebral blood flow, statements in the description; assay type: in vivo; settings: in words
# [3] = test system: cerebral blood flow of cats; assay: Investigation of cerebral blood flow of cats (heat-conducting thermoprobe according to Hensel); assay type: in vivo; settings: for Change of blood perfusion half-value time: action time; for Change of blood perfusion Δ λ: heat transfer factor λ
# Method: The test animals are cats under chloralose urethane narcosis (70+200 mg/kg i.p.). The top of the skull is opened in the area of the frontal gyrus marginalis or suprasylvicus. […] The action time is given as the half value time and the intensity of action is determined according to Golenhofen et al. as a heat transfer factor λ. The recording was performed with thermoprobes using a two-channel Pluvograph of Hartmann & Braun, Frankfurt am Main, Germany. Other circulation parameters recorded at the same time were fed to a Hellige multi-channel recorder.
# [4] = Toxicity in mg/kg (mouse); settings: in vivo
SMILES,"water solubility and/or toxicity versus theobromine, theophylline and trialkylxanthines [1]",pharmacological activity [2],Change of blood perfusion half-value time ([3]; 5 mg/kg i.v.),Change of blood perfusion Δ λ ([3]; 5 mg/kg i.v.),Change of blood perfusion half-value time ([3]; 10 mg/kg i.v.),Change of blood perfusion Δ λ ([3]; 10 mg/kg i.v.),LD50 ([4]; ip),Change of blood perfusion half-value time ([3]; 50 mg/kg i.v.),Change of blood perfusion Δ λ ([3]; 50 mg/kg i.v.),Change of blood perfusion half-value time ([3]; 100 mg/kg i.v.),Change of blood perfusion Δ λ ([3]; 100 mg/kg i.v.),further results
"CC(O)Cn1cnc2c1c(=O)n(C)c(=O)n2C (stereo not shown) [7-(2-Hydroxypropyl)-1,3-dimethyl-xanthine]","greater degree of water solubility and/or lower toxicity than theobromine,theophylline and trialkylxanthines",reduced pharmacological activity,–,–,–,–,–,–,–,–,–,–
"Cn1c(=O)c2[nH]cnc2n(C)c1=O.NCCN [theophylline-ethylenediamine, 1,3-dimethylxanthine-ethylene-diamine]",–,–,3.3 min,+0.18,1.7 min,+0.53,217 mg/kg,–,–,–,–,"action on cerebral blood flow (cerebral blood flow): increases the cerebral blood flow, but only to a limited extent and only for a short time; Change of blood perfusion half-value time ([3]; 1 mg/kg i.v.): 1.8 min; Change of blood perfusion Δ λ ([3]; 1 mg/kg i.v.): +0.19; Change of blood perfusion half-value time ([3]; 2 mg/kg i.v.): 1.8 min; Change of blood perfusion Δ λ ([3]; 2 mg/kg i.v.): +0.15"
"CC(O)CCCCn1c(=O)c2c(ncn2C)n(C)c1=O (stereo not shown) [1-(5-hydroxyhexyl)-3,7-dimethylxanthine]",–,–,5.0 min,+1.55,3.5 min,+2.65,–,–,–,–,–,Change of blood perfusion half-value time ([3]; 3 mg/kg i.v.): 4.3 min; Change of blood perfusion Δ λ ([3]; 3 mg/kg i.v.): +1.80; LD50 ([4]; iv): 195 mg/kg
"CC(O)Cn1c(=O)c2c(ncn2C)n(C)c1=O (stereo not shown) [1-(2-hydroxypropyl)-3,7-dimethylxanthine]","greater degree of water solubility and/or lower toxicity than theobromine,theophylline and trialkylxanthines",reduced pharmacological activity,0.50 min,-0.25,1.50 min,-0.50,–,17.5 min,-5.25,6.5 min,-10.00,–
"Cn1c(=O)c2c(ncn2CCO)n(C)c1=O [7-(2-hydroxyethyl)-1,3-dimethylxanthine]",–,–,0.23 min,-0.50,0.50 min,-1.33,–,7.17 min,-5.33,8.00 min,-6.00,Change of blood perfusion half-value time ([3]; 25 mg/kg i.v.): 6.73 min; Change of blood perfusion Δ λ ([3]; 25 mg/kg i.v.): -2.17
"CC(O)CCCCCn1cnc2c1c(=O)n(C)c(=O)n2C (stereo not shown) [1,3-dimethyl-7-(6-hydroxyheptyl)-xanthine]",–,–,1.8 min,+1.17,–,–,250 to 500 mg/kg,–,–,–,–,Change of blood perfusion half-value time ([3]; 1 mg/kg i.v.): 0.6 min; Change of blood perfusion Δ λ ([3]; 1 mg/kg i.v.): +0.70; Change of blood perfusion half-value time ([3]; 2 mg/kg i.v.): 1.2 min; Change of blood perfusion Δ λ ([3]; 2 mg/kg i.v.): +0.42
"Cn1c(=O)c2c(ncn2CC(O)CO)n(C)c1=O (stereo not shown) [7-(2,3-dihydroxypropyl)-1,3-dimethylxanthine]","greater degree of water solubility and/or lower toxicity than theobromine,theophylline and trialkylxanthines",reduced pharmacological activity,–,–,1.7 min,–,–,3.0 min,+0.20,3.0 min,-0.05,Change of blood perfusion half-value time ([3]; 25 mg/kg i.v.): 6.0 min; Change of blood perfusion Δ λ ([3]; 25 mg/kg i.v.): -0.23
"CC(O)CCCCn1cnc2c1c(=O)n(C)c(=O)n2C (stereo not shown) [1,3-dimethyl-7-(5-hydroxyhexyl)-xanthine]",–,–,1.8 min,+0.18,–,–,250 to 500 mg/kg,–,–,–,–,–
